The source of these data is EP1388013B1, “COMPOSITIONS AND METHODS FOR THE USE OF FIBRONECTIN FRAGMENTS IN THE DIAGNOSIS OF CANCER” (THE REGENTS OF THE UNIVERSITY OF MICHIGAN, priority 2001, dated 2002).

For test [1], the system named is normal human prostate epithelial cells. Description: SU-ECM invasion assay, normal prostate epithelial cells. Format: cell-based. Particulars: SU-ECM, serum containing environment; Figure 12. The method, then:
(§1) Adult Strongylocentrotus purpuratus sea urchins were obtained from Pacific BioMarine, and their embryos were cultured to the early pluteus stage in artificial sea water at 15°C. SU-ECM were prepared from them by treatment with nonionic detergent and sterilized by dilution in the appropriate media.
[…] When appropriate, purified bovine plasma fibronectin (Sigma, St. Louis, Mo), purified 120 kDa chymotryptic fragment (Gibco BRL), PHSRN or PHSCN peptides (synthesized at the Biomedical Research Core Facilities of the University of Michigan), or GRGDSP or GRGESP peptides (Gibco BRL) were added to the resuspended cells prior to placement of the cells on SU-ECM. In each well of a plate used for an invasion assay, SU-ECM were placed in 0.5 ml of the appropriate medium, and 0.5ml of the resuspended cells dropped on their exterior surfaces. Invasion assays were incubated 1 to 16 hours prior to scoring. If some circumstances, invasion assays were fixed in phosphate-buffered saline (PBS) with 2% formaldehyde for 5 minutes at room temperature, then rinsed into PBS.
(§2) Invasion assays were coded and scored blindly by microscopic examination under phase contrast at 200- and 400-fold magnification. Each cell contacting an SU-ECM was scored for its position relative to the exterior or interior surfaces. A cell was judged to have invaded if it was located on an interior surface below the focal plane passing through the upper surface of the SU-ECM, but above the focal plane passing through its lower surface. The minimum viability of the cells in each assay was always ascertained at the time of assay by determining the fraction of spread, adherent cells on the bottom of each well scored.
An invasion frequency is defined as the fraction of cells in contact with basement membranes which were located in their interiors at the time of assay. […] Invasion frequencies were determined multiple times for each cell type assayed. For each type of cell assayed the mean and standard deviation of the invasion frequencies were calculated. […]

The test system of test [2] is normal, neonatal fibroblasts. Description: Invasion of fibronectin-depleted Matrigel by fibroblasts. Particulars: gelatin plus antibody panned Matrigel; Figure 2. Format: cell-based. The method, then: Anti-fibronectin antibody-coated wells: Wells of a 24-well plate were coated with an anti-fibronectin antibody. A mouse monoclonal antibody to human fibronectin was obtained from Oncogene Science (Catalog #CP13). Each well was incubated with 1 ml of antibody at a concentration of […] for 2 hours at room temperature. Each well was then incubated with a solution of 3% BSA in PBS for 2 hours at room temperature. Following the two incubation periods, the wells were thoroughly washed with PBS and stored at -20 °C until use.
Depleting Matrigel of Fibronectin: Matrigel was panned over eight gelatin-coated wells (as described above in Example 2) to remove most of the fibronectin and its fragments. Thereafter, the Matrigel was placed in the antibody-coated wells to remove any remaining fragments of fibronectin which contain the cell-binding domain but not the gelatin-binding domain. The Matrigel was incubated in an ice bucket on an orbital shaker at 4 °C for 2 hours. Once the Matrigel was depleted, it was collected in Eppendorf tubes. The fibronectin-depleted Matrigel was plated on a 48-well plate (150 µl/well), sterilized under a UV light for 10 minutes and incubated at 37 °C overnight. The Matrigel formed a gel and the following day, cells were added to the wells. […]

Test [3] relates to metastatic SUM-52 PE breast cancer cells. The experiment in a line: SU-ECM invasion assay, SUM-52 PE cells. Format: cell-based, human. Conditions: PHSRN sequence of fibronectin alone; Example 4. As to the method:
as §1
Cells were harvested by rinsing in Hanks balanced salt solution, followed by brief treatment with 0.25% trypsin, 0.02% EDTA, and pelleting and resuspension in the appropriate medium with or without 5% FCS at a density of about 50,000 cells per ml. When appropriate, purified bovine plasma fibronectin (Sigma, St. Louis, Mo), purified 120 kDa chymotryptic fragment (Gibco BRL), PHSRN or PHSCN peptides (synthesized at the Biomedical Research Core Facilities of the University of Michigan), or GRGDSP or GRGESP peptides (Gibco BRL) were added to the resuspended cells prior to placement of the cells on SU-ECM. In each well of a plate used for an invasion assay, SU-ECM were placed in 0.5 ml of the appropriate medium, and 0.5ml of the resuspended cells dropped on their exterior surfaces. Invasion assays were incubated 1 to 16 hours prior to scoring. If some circumstances, invasion assays were fixed in phosphate-buffered saline (PBS) with 2% formaldehyde for 5 minutes at room temperature, then rinsed into PBS.
as §2
An invasion frequency is defined as the fraction of cells in contact with basement membranes which were located in their interiors at the time of assay. Thus, an invasion frequency of 1 denotes invasion by 100% of the cells in contact with basement membranes. Invasion frequencies were determined multiple times for each cell type assayed. For each type of cell assayed the mean and standard deviation of the invasion frequencies were calculated.
The method of Example 4 is employed, with the addition of varying concentrations of the PHSCN peptide.
Thus, the procedure in Example 4 provides a method for determining the inhibitory potential of the PHSCN peptide by comparing the number of cell invasions in the presence of the PHSCN peptide, with the number of cell invasions in the absence of the PHSCN peptide.

No end group written: not given here.

Consider PHSRN [PHSRN], for which the “induction of invasive behavior of human prostate epithelial cells” value in test [1] is “induces the invasive behaviors”. For the same substance, the “induction of fibroblast invasiveness on fibronectin-depleted Matrigel” value in test [2] is listed as “could be induced”. For the same substance, the “induction of SUM-52 cell invasion of SU-ECM” value in test [3] is “induced to invade”.
